Common to all, as to assay: DTP human tumour cell line panel, 48 h
For test [1], the system named is SF-295 CNS.
The test system of test [2] is MCF7 breast.
In test [3] the test system is UO-31 renal.
In test [4] the test system is SK-MEL-2 melanoma.
Test [5] relates to CAKI-1 renal.
Test [6] relates to A549 NSCLC.
For test [7], the system named is NCI-H226 lung.
Test [8] has as its system RXF 393 renal.
The subject of test [9] is HOP-92 NSCLC.
Test [10] relates to RPMI-8226 leukemia.
In test [11] the test system is HL-60(TB) leukemia.
Test [12] concerns OVCAR-4 ovarian.
For test [13], the system named is OVCAR-5 ovarian.
In test [14] the test system is OVCAR-8 ovarian.
Test [15] has as its system SF-268 CNS.
The subject of test [16] is SNB-75 CNS.
In test [17] the test system is SN12C renal.
For test [18], the system named is SK-OV-3 ovarian.
For test [19], the system named is MDA-MB-435.
Test [20] has as its system MDA-N.

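The compound was tested at five concentrations on cells cultured in 96-well plates, with a 48-hour exposure period. TGI: concentration producing complete growth inhibition.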

The TGI is the concentration at which net growth stops. Consider `CC(=O)O[C@H]1C(=O)[C@@]2(C)[C@H]([C@H](OC(=O)c3ccccc3)[C@]3(O)C[C@H](OC(=O)[C@H](O)[C@@H](NC(=O)c4ccccc4)C4CCCCC4)C(C)=C1C3(C)C)[C@]1(OC(C)=O)CO[C@@H]1C[C@@H]2O`, for which the TGI was 0.0606 µM in test [1]; 25.9 µM in [2]; 36.2 µM in test [3]; greater than 100 µM in test [4]; greater than 100 µM in [5]; greater than 100 µM in [6]. For the same compound, the TGI is greater than 100 µM in [7]; 0.013 µM in test [8]; 64.1 µM in test [9]; 19.2 µM in test [10]; less than 0.01 µM in [11]; 50.5 µM in test [12]. For the same compound, the values for the TGI in test [13], in test [14] and in test [15] were 0.673 µM, 98.8 µM and greater than 100 µM, respectively.

With `Cc1c(/C=N/NC(=O)c2ccccc2)c(=O)n(-c2ccccc2)n1C`, the TGI in test [1], in [3], in [4], in test [6], in test [7] and in [8] was greater than 100 µM in each case. Besides, the TGI in [16], in test [9], in test [10], in test [11], in [17] and in test [12] was greater than 100 µM throughout. Besides, the TGI in test [14], in test [18] and in test [15] was greater than 100 µM throughout.

As for `Cc1ccc(C2(C)NC(=S)N(NC(N)=S)C2=S)cc1` (stereo not given), the TGI in [1], in [3], in [4], in [6], in test [7] and in [8] was greater than 100 µM each time. Also, the TGI in [16], in test [10], in test [11], in test [17], in test [12] and in test [14] was greater than 100 µM throughout. The TGI in [15] was greater than 100 µM.

Regarding `CC(C)=CCC/C(C)=C/CC/C(C)=C/CC/C=C(\C)CC/C=C(\C)CCC1SC1(C)C` (stereo not given), the TGI in [1], in test [3], in test [4], in test [5], in test [6] and in test [7] was greater than 100 µM throughout. In addition, the TGI in test [8], in [16], in test [9], in test [10], in test [11] and in test [17] was greater than 100 µM each time. The TGI in test [12], in test [13], in test [14], in test [18] and in test [15] was greater than 100 µM in each case.

`COc1ccc(N2C(=O)CSC2c2cc3cc(Br)ccc3nc2Cl)cc1` (stereo not given): the concentration for total growth inhibition (TGI) in [1], in [2], in test [3], in test [4], in [5] and in test [6] was greater than 50 µM throughout. In addition, the concentration for total growth inhibition (TGI) in test [7], in test [8], in test [16], in test [9], in [19] and in test [10] was greater than 50 µM throughout. For the same compound, the TGI in [11], in test [17], in test [12], in [13], in test [14] and in [18] was greater than 50 µM throughout. Moreover, the TGI in test [15] is greater than 50 µM.

On to `Cc1ccccc1N=Cc1ccc(N(CCC#N)S(=O)(=O)c2ccccc2)cc1`, for which the TGI in test [1], in [3], in test [4], in [5], in [6] and in test [7] was greater than 100 µM throughout. For the same compound, the TGI in test [8], in [16], in [9], in [10], in test [11] and in [17] was greater than 100 µM throughout. For the same compound, the TGI in [12], in test [13], in test [14], in test [18] and in test [15] was greater than 100 µM each time.

Regarding `COC(=O)C(/C(=N/N)C(=O)Nc1ccc(C)c(C)c1)c1nc2ccc(Cl)cc2[nH]c1=O` (stereo not given), the TGI in test [1], in [2], in test [3], in test [4], in test [5] and in [6] was greater than 100 µM throughout. The TGI in test [7], in test [8], in test [16], in test [9], in [19] and in test [10] was greater than 100 µM throughout. In addition, the TGI in test [11], in test [17], in [12], in test [13], in [14] and in test [18] was greater than 100 µM throughout. The compound further registered a TGI in test [15] greater than 100 µM.

For `COc1cc2c(c(N)c1OC)C(=O)/C(=C/c1cc(C)c(O)c(C)c1)C2`, the TGI in [1] was greater than 55.6 µM; in test [2], greater than 100 µM; in [3], greater than 100 µM; in [4], greater than 95.4 µM; in test [5] it was greater than 100 µM; in [6], greater than 100 µM. Further, the TGI in test [7], in [8], in test [9], in test [17], in test [12] and in test [13] was greater than 100 µM in each case. In addition, the TGI in test [14], in [18] and in test [15] was greater than 100 µM throughout.

In the case of `CNc1nnnn1C1OC(CO)C(O)C1O` (stereo not given), the TGI in test [1], in test [3], in test [4], in test [5], in test [6] and in [7] was greater than 100 µM throughout. Moreover, the TGI in test [8], in test [16], in [10], in test [17], in [13] and in [14] was greater than 100 µM throughout. Moreover, the TGI in test [18] and in [15] was greater than 100 µM in each case.

For `O=C1NC2OCC(O)C(O1)C2O` (stereo not given), the TGI in test [1], in [3], in [4], in test [5], in [7] and in test [8] was greater than 100 µM in each case. Besides, the TGI in test [16], in test [9], in test [10], in [11], in test [17] and in test [12] was greater than 100 µM in each case. Moreover, the TGI in test [13], in [14], in test [18] and in [15] was greater than 100 µM in each case.

With `C=C1C(=O)OC2C[C@H](C)C3CC(=O)C(C)=C3CC12` (stereo not given in full), the TGI in test [1] was greater than 62.3 µM; in test [3], 26 µM; in test [4], 29 µM; in test [5] it was 18.2 µM; in [6] it was 69.1 µM; in [7], 30.6 µM. Further, the TGI came to 31.6 µM in test [8]; 32.6 µM in test [16]; 24.1 µM in [9]; 21.9 µM in [10]; 8.42 µM in [11]; 26.1 µM in test [17]. For the same compound, the TGI was 30.3 µM in test [12]; 28.9 µM in test [13]; 39.3 µM in test [14]; greater than 100 µM in [18]; 38.7 µM in test [15].

In the case of `COC(=O)c1ccccc1/C=C1\Cc2cc3c(cc2C1=O)CCC3`, the TGI in [1], in [2], in [3], in test [4], in test [5] and in test [6] was greater than 100 µM throughout. The TGI in test [7] was greater than 100 µM; in test [20] it was 78.8 µM; in test [16] it was greater than 100 µM; in test [10] it was greater than 100 µM; in test [11], greater than 100 µM; in [17], greater than 100 µM. In addition, the TGI in test [12], in test [13], in test [14], in test [18] and in test [15] was greater than 100 µM throughout.

On to `CC1(C)N(OC2CCCCO2)C(c2ccccc2)C(c2ccccc2)=[N+]1[O-]` (stereo not given), for which the TGI in test [1], in test [2], in test [3], in test [4], in test [5] and in test [6] was greater than 100 µM throughout. For the same compound, the TGI in test [7], in [8], in test [20], in test [16], in [9] and in test [11] was greater than 100 µM throughout. In addition, the TGI in test [17], in test [12], in [13], in [14] and in test [18] was greater than 100 µM in each case.

Regarding `CC1=C2C(=O)C3[C@@H](CCC4=CC(=O)CC[C@@]43C)C2CC[C@]12O[C@@H]1C[C@H](C)CN[C@H]1[C@H]2C` (stereo not given in full), the TGI in test [1] was greater than 100 µM; in test [3], greater than 100 µM; in [4], 63.2 µM; in test [5] it was greater than 100 µM; in [6] it was greater than 100 µM; in test [7] it was greater than 100 µM. In addition, the TGI in test [8] was greater than 100 µM; in [16], greater than 100 µM; in [9] it was greater than 100 µM; in test [10], 49.7 µM; in test [11], 28.2 µM; in test [17] it was greater than 100 µM. The TGI in [12], in test [14], in [18] and in [15] was greater than 100 µM throughout.

As for `C=C[C@@]1(C)CC2CC[C@]3(C)C(C)=CC(=O)CC3[C@]2(C)CC1O` (stereo not given in full), the TGI in test [1], in test [2], in [3], in [4], in test [5] and in [6] was greater than 100 µM each time. In addition, the TGI is greater than 100 µM in [7]; greater than 100 µM in test [8]; greater than 100 µM in test [9]; greater than 100 µM in test [19]; greater than 100 µM in test [10]; 82 µM in test [11]. Besides, the TGI in test [17], in [12], in [13], in test [18] and in test [15] was greater than 100 µM in each case.

For `Nc1ncnc2c1ncn2[C@@H]1C[C@H]1CO`, the TGI in [1], in [2], in test [3], in test [4], in test [6] and in [7] was greater than 100 µM in each case. In addition, the TGI in [20], in test [10], in [11], in [17], in test [13] and in test [14] was greater than 100 µM in each case.

As to `Cc1ccc(S(=O)(=O)c2c(N)c3nccn3c3nc4ccccc4nc23)cc1`, the TGI in test [3], in test [4], in test [5], in test [6], in test [16] and in [9] was greater than 100 µM in each case. Further, the TGI in test [10], in test [11], in [17], in test [12], in [13] and in [14] was greater than 100 µM throughout. Also, the TGI in test [18] and in test [15] was greater than 100 µM in each case.
